# Reference: US20200131196A1 (Mount Tam Therapeutics, Inc., priority 2017, published 2020)
# Like-named read-outs stand apart in the source and are kept apart here.
# Tests used:
# SW579 = test: OncoPanel cell proliferation assay, SW579; assay type: cell-based, human
# Protocol: (§1) Cells were grown in RPMI 1640, 10% FBS, 2 mM L-alanyl-L-glutamine, 1 mM Na pyruvate, or a special medium. Cells were seeded into 384-well plates and incubated in a humidified atmosphere of 5% CO2 at 37° C. Compounds were added the day following cell seeding. At the same time, a time zero untreated cell plate was generated. After a 3-day incubation period, cells were fixed and stained to allow fluorescence imaging of nuclei. Compounds (1 mM stock solutions) were serially diluted in half-log steps from the highest test concentration ([…]), and assayed over 10 concentrations with a maximum assay concentration of 0.1% DMSO. Automated fluorescence microscopy was carried out using a Molecular Devices ImageXpress Micro XL high-content imager, and images were collected with a 4× objective. 16-bit TIFF images were acquired and analyzed with MetaXpress 5.1.0.41 software.
# (§2) Cell proliferation was measured by the fluorescence intensity of an incorporated nuclear dye. The output is referred to as the relative cell count, where the measured nuclear intensity is transformed to percent of control (POC) using the following formula: […]
# (§3) Cellular response parameters were calculated using nonlinear regression to a sigmoidal single-site dose response model:
# (§4) EC50 is the test compound concentration at the curve inflection point or half the effective response (parameter C of the fitted curve solution). GI50 is the concentration needed to reduce the observed growth by half (midway between the curve maximum and the time zero value). “Cell Count Activity Area” is an estimate of the integrated area above the curve (Barretina, et al. The Cancer Cell Line Encyclopedia enables predictive modelling of anticancer drug sensitivity. Nature 483: 603-607). […] In rare instances, values <0 or >10 may be observed. […] Curve-fitting, calculations, and report generation was performed using a custom data reduction engine and MathIQ based software (AIM).
# CML-T1 = test: OncoPanel cell proliferation assay, CML-T1; assay type: cell-based, human
# Protocol: as §1, §2, §3, §4
# AGS = test: OncoPanel cell proliferation assay, AGS; assay type: cell-based, human
# Protocol: as §1, §2, §3, §4
# NCIH446 = test: OncoPanel cell proliferation assay, NCIH446; assay type: cell-based, human
# Protocol: as §1, §2, §3, §4
# NCI-H510A = test: OncoPanel cell proliferation assay, NCI-H510A; assay type: cell-based, human
# Protocol: as §1, §2, §3, §4
# AsPC-1 = test: OncoPanel cell proliferation assay, AsPC-1
# Protocol: Cells were seeded into 384-well plates and incubated in a humidified atmosphere of 5% CO2 at 37° C. Compounds were added the day following cell seeding. At the same time, a time zero untreated cell plate was generated. After a 3-day incubation period, cells were fixed and stained to allow fluorescence imaging of nuclei. Compounds (1 mM stock solutions) were serially diluted in half-log steps from the highest test concentration (1 micromol), and assayed over 10 concentrations with a maximum assay concentration of 0.1% DMSO. Automated fluorescence microscopy was carried out using a Molecular Devices ImageXpress Micro XL high-content imager, and images were collected with a 4× objective. 16-bit TIFF images were acquired and analyzed with MetaXpress 5.1.0.41 software.
# GI50 is the concentration needed to reduce the observed growth by half (midway between the curve maximum and the time zero value). […] In rare instances, values <0 or >10 may be observed. […] Curve-fitting, calculations, and report generation was performed using a custom data reduction engine and MathIQ based software (AIM).
# RL95-2 = test: OncoPanel cell proliferation assay, RL95-2; assay type: cell-based, human
# Protocol: as §1, §2, §3, §4
# [1] = Homo sapiens, read-out: Cell Count EC50
# [2] = Homo sapiens, read-out: Cell Count GI50
# [3] = Homo sapiens, read-out: Cell Count IC50
structure (smiles),measurement,setting,value
"CO[C@H]1C[C@@H]2CC[C@@H](C)[C@@](O)(O2)C(=O)C(=O)N2CCCC[C@H]2C(=O)O[C@H]([C@H](C)C[C@H]2C[C@H]3C[C@@H]2C[C@@H]3O)CC(=O)[C@H](C)/C=C(\C)[C@@H](O)[C@@H](OC)C(=O)[C@H](C)C[C@H](C)/C=C/C=C/C=C/1C [Formula II, C37-[(1R,2S,4R,5S)-5-hyhroxybicyclo[2.2.1]heptane] rapamycin]",Relative cell count (%) Mean,SW579; 3.17E-03 microM,50.2%
same,Relative cell count (%) Mean,SW579; 3.18E-04 microM,66.2%
same,Relative cell count (%) Mean,SW579; 3.18E-05 microM,86.0%
same,EC50,SW579; [1],0.204 nM
same,GI50,SW579; [2],1.06 nM
same,IC50,SW579; [3],4.52 nM
same,Cell Count Activity Area,CML-T1,3.68
same,Relative cell count (%) Mean,CML-T1; 1.00E+00 microM,44.0%
same,Relative cell count (%) Mean,CML-T1; 1.00E-01 microM,46.4%
same,Relative cell count (%) Mean,CML-T1; 1.00E-02 microM,54.5%
same,Relative cell count (%) Mean,CML-T1; 1.00E-03 microM,67.7%
same,Relative cell count (%) Mean,CML-T1; 1.01E-04 microM,96.1%
same,Relative cell count (%) Mean,CML-T1; 3.16E-01 microM,42.4%
same,Relative cell count (%) Mean,CML-T1; 3.17E-02 microM,46.2%
same,Relative cell count (%) Mean,CML-T1; 3.17E-03 microM,59.5%
same,Relative cell count (%) Mean,CML-T1; 3.18E-04 microM,78.8%
same,Relative cell count (%) Mean,CML-T1; 3.18E-05 microM,96.6%
same,EC50,CML-T1; [1],0.821 nM
same,GI50,CML-T1; [2],3.64 nM
same,IC50,CML-T1; [3],12.5 nM
same,Cell Count Activity Area,AGS,5.29
same,Relative cell count (%) Mean,AGS; 1.00E+00 microM,41.7%
same,Relative cell count (%) Mean,AGS; 1.00E-01 microM,44.3%
same,Relative cell count (%) Mean,AGS; 1.00E-02 microM,41.0%
same,Relative cell count (%) Mean,AGS; 1.00E-03 microM,48.7%
same,Relative cell count (%) Mean,AGS; 1.01E-04 microM,87.1%
same,Relative cell count (%) Mean,AGS; 3.16E-01 microM,40.7%
same,Relative cell count (%) Mean,AGS; 3.17E-02 microM,42.8%
same,Relative cell count (%) Mean,AGS; 3.17E-03 microM,51.4%
same,Relative cell count (%) Mean,AGS; 3.18E-04 microM,63.8%
same,Relative cell count (%) Mean,AGS; 3.18E-05 microM,124.5%
same,EC50,AGS; [1],0.133 nM
same,GI50,AGS; [2],0.245 nM
same,IC50,AGS; [3],0.297 nM
same,Cell Count Activity Area,NCIH446,1.23
same,Relative cell count (%) Mean,NCIH446; 1.00E+00 microM,80.9%
same,Relative cell count (%) Mean,NCIH446; 1.00E-01 microM,83.6%
same,Relative cell count (%) Mean,NCIH446; 1.00E-02 microM,83.2%
same,Relative cell count (%) Mean,NCIH446; 1.00E-03 microM,93.7%
same,Relative cell count (%) Mean,NCIH446; 1.01E-04 microM,102.5%
same,Relative cell count (%) Mean,NCIH446; 3.16E-01 microM,74.9%
same,Relative cell count (%) Mean,NCIH446; 3.17E-02 microM,83.3%
same,Relative cell count (%) Mean,NCIH446; 3.17E-03 microM,85.8%
same,Relative cell count (%) Mean,NCIH446; 3.18E-04 microM,87.3%
same,Relative cell count (%) Mean,NCIH446; 3.18E-05 microM,94.2%
same,EC50,"NCIH446; Homo sapiens, NCI-H446, read-out: Cell Count EC50",> 1000 nM
same,GI50,"NCIH446; Homo sapiens, NCI-H446, read-out: Cell Count GI50",> 1000 nM
same,IC50,"NCIH446; Homo sapiens, NCI-H446, read-out: Cell Count IC50",> 1000 nM
same,Cell Count Activity Area,NCI-H510A,2.57
same,Relative cell count (%) Mean,NCI-H510A; 1.00E+00 microM,91.4%
same,Relative cell count (%) Mean,NCI-H510A; 1.00E-01 microM,84.2%
same,Relative cell count (%) Mean,NCI-H510A; 1.00E-02 microM,99.6%
same,Relative cell count (%) Mean,NCI-H510A; 1.00E-03 microM,92.3%
same,Relative cell count (%) Mean,NCI-H510A; 1.01E-04 microM,102.2%
same,Relative cell count (%) Mean,NCI-H510A; 3.16E-01 microM,88.0%
same,Relative cell count (%) Mean,NCI-H510A; 3.17E-02 microM,90.4%
same,Relative cell count (%) Mean,NCI-H510A; 3.17E-03 microM,95.4%
same,Relative cell count (%) Mean,NCI-H510A; 3.18E-04 microM,101.6%
same,Relative cell count (%) Mean,NCI-H510A; 3.18E-05 microM,129.0%
same,EC50,"NCI-H510A; Homo sapiens, NCl-H510A, Lung, Small cell lung cancer (SCLC), summary Table 5, read-out: EC50",0.072 nM
same,EC50,NCI-H510A; [1],0.0717 nM
same,GI50,NCI-H510A; [2],> 1000 nM
same,IC50,NCI-H510A; [3],> 1000 nM
same,Cell Count Activity Area,AsPC-1; AsPC-1,1.68
same,Relative cell count (%) Mean,"AsPC-1; AsPC-1, 1.00E+00 microM",70.3%
same,Relative cell count (%) Mean,"AsPC-1; AsPC-1, 1.00E-01 microM",74.4%
same,Relative cell count (%) Mean,"AsPC-1; AsPC-1, 1.00E-02 microM",89.3%
same,Relative cell count (%) Mean,"AsPC-1; AsPC-1, 1.00E-03 microM",90.9%
same,Relative cell count (%) Mean,"AsPC-1; AsPC-1, 1.01E-04 microM",105.4%
same,Relative cell count (%) Mean,"AsPC-1; AsPC-1, 3.16E-01 microM",77.3%
same,Relative cell count (%) Mean,"AsPC-1; AsPC-1, 3.17E-02 microM",81.7%
same,Relative cell count (%) Mean,"AsPC-1; AsPC-1, 3.17E-03 microM",90.9%
same,Relative cell count (%) Mean,"AsPC-1; AsPC-1, 3.18E-04 microM",97.5%
same,Relative cell count (%) Mean,"AsPC-1; AsPC-1, 3.18E-05 microM",104.0%
same,EC50,"AsPC-1; Homo sapiens, ASPC1",8.6 nM
same,EC50,"AsPC-1; Homo sapiens, ASPC1, read-out: Cell Count EC50",8.56 nM
same,GI50,"AsPC-1; Homo sapiens, ASPC1, read-out: Cell Count GI50",246 nM
same,IC50,"AsPC-1; Homo sapiens, ASPC1, read-out: Cell Count IC50",> 1000 nM
same,Cell Count Activity Area,RL95-2,3.36
same,Relative cell count (%) Mean,RL95-2; 1.00E+00 microM,48.1%
same,Relative cell count (%) Mean,RL95-2; 1.00E-01 microM,51.9%
same,Relative cell count (%) Mean,RL95-2; 1.00E-02 microM,61.8%
same,Relative cell count (%) Mean,RL95-2; 1.00E-03 microM,69.2%
same,Relative cell count (%) Mean,RL95-2; 1.01E-04 microM,91.3%
same,Relative cell count (%) Mean,RL95-2; 3.16E-01 microM,51.5%
same,Relative cell count (%) Mean,RL95-2; 3.17E-02 microM,53.8%
same,Relative cell count (%) Mean,RL95-2; 3.17E-03 microM,62.6%
same,Relative cell count (%) Mean,RL95-2; 3.18E-04 microM,78.8%
same,Relative cell count (%) Mean,RL95-2; 3.18E-05 microM,95.1%
same,EC50,RL95-2; [1],0.645 nM
same,GI50,RL95-2; [2],1.18 nM
same,IC50,RL95-2; [3],> 1000 nM
